Laboratory results published in patent publication US20230233584A1, “EXTENDED RELEASE 5-HT RECEPTOR AGONISTS FOR NEUROLOGICAL CONDITIONS” (Diamond Therapeutics Inc., priority 2020, published 2023).

Tests used:
[1] = Body weight during 12-day minipump study; format: in vivo; conditions: rats
Long Evans rats = assay: Progressive ratio (PR) test, Study B; format: in vivo
Protocol: General: Experiments were conducted to test psilocybin doses in the range of 0.01-0.2 mg/kg psilocybin administered S.C. across progressive ratio (PR) and 5-choice serial reaction time task (5CSRTT) to examine the effect of psilocybin on endophenotypes of motivation and attention. In each study, a population of out-bred Long Evans rats was first tested as a group for response to the PR and 5CSRTT. Each group was then divided into subgroups by tertiles according to performance, and then exposed to various dose levels immediately prior to re-testing at various psilocybin dose levels.
The PR test is used to answer how willing the test subject is to work for food (i.e. test of motivation). A single 45 mg food pellet (i.e. reinforcer) is made available to the test animal based on lever press response. To obtain each successive pellet, the animal must make increasingly more lever presses. Typically, a progression of 2, 4, 6, 9, 12, 15, 20, 25, 32, 40, 50, 62, 77, 95, 118, etc. is used, derived from the equation:
ratio=[5×e^(0.2×reinforcer #)−5]
At some point, the animal gives up as the motor demands to obtain a single pellet are not deemed worthwhile (i.e. animal reaches “break point” defined as animal's failure to earn a food pellet in 20 minutes).
Study B: Based on Study 1 outcome, a follow-up PR study was conducted utilizing a larger cohort size (72 rats total), and incorporating a lower dose of psilocybin (0.025 mg/kg SC) (FIG. 2C and FIG. 2D). […] Separation of rats based on the lowest average break point recorded over the 7 days prior to testing identified a “low responder” subgroup of N=24 rats. […] There was no treatment effect on session duration (F3,69=2.4; P=0.07, NS), although there was trend for this to be increased at the 0.1 mg/kg dose (Veh: 15.1+2.0 min; Psilo 0.1 mg/kg: 18.7+2.5 min).

[2] = Minipump infusion of psilocybin over 12 days: plasma/blood exposure; format: in vivo, rats; conditions: psilocybin minipump, days 4-12, rats
Protocol: A dose of psilocybin, which is free from perceptual and behavioral side effects, was dosed in rats (N=24) continuously over a period of 12 days using an Alzet minipump implanted in rats of approximately 380-390 g body weight. The pump was primed to deliver psilocybin at 5 mg/kg/day pump concentration. The target plasma concentration was 10 ng/ml psilocin with actual plasma concentration 9.3+1.3 ng/ml over the 12 day study period.
Blood was collected from rats on days 4, 8 and 12 to measure levels of psilocybin and psilocin in Group B rats. Blood was collected via saphenous bleed at a standard timepoint which will not interfere with 5-choice testing. Psilocin blood levels were in the range of 8-10 ng/ml over days 4-12, while psilocybin blood levels were in the range of 2-5 ng/ml over days 4-12 (FIG. 7A), corresponding to 10 ng/mL psilocin. […] The present observations recorded for psilocybin/psilocin are occurring at exposure levels of psilocin ˜10 ng/ml (e.g., FIG. 5), likely resulting in a low level of CNS 5-HT2A receptor occupancy, and which is insufficient to elicit cardinal signs of 5-HT2A receptor activation such as WDS/BMC in rats (e.g., FIG. 1B).

[3] = Psilocybin and psilocin plasma pharmacokinetics after s.c. psilocybin; format: in vivo, rats; conditions: rats; for AUC0-tlast, Mean / Cmax, Mean / Cmax/Dose, Mean / tmax, Mean / AUC0-inf, Mean / AUC0-inf/Dose, Mean / Apparent t1/2, Mean / MRT0-inf, Mean: psilocybin in plasma
Protocol: Psilocybin doses of 0.05, 0.1, 1, 10 mg/kg were used to evaluate psilocybin and psilocin PK in rats. For the doses of psilocybin that positively effect behaviors in the low performers in the PR and 5CSRTT, e.g., 0.05-0.1 mg/kg, the corresponding Cm. of psilocin was ˜7±2 ng/ml at 30 minutes for 0.05 mg/kg, and at a dose of 0.1 mg/kg, the Cm. of psilocin was determined to be ˜12±3 ng/ml at 30 minutes (FIG. 5).
Details of the plasma concentration studies are shown in Tables 1-8 (psilocybin) and 9-16 (psilocin). Values in italics are below the lower level of quantitation (BLQ, <1 ng/mL) but were included in calculations. Values in bold and underlined are considered to be outliers and were omitted from calculations. Measured dosing solution concentrations were 0.0460, 0.0967, 0.948 and 9.65 mg/mL for 0.05, 0.1, 1 and 10 […].

rats = assay: Locomotor activity, distance travelled; format: in vivo
Source text: Stimulant drugs cause far larger increases in distance travelled with escalating doses, reflective of a direct motor stimulant property not seen with psilocybin.

[4] = 0.025-0.1 mg/kg SC, all 72 rats

SMILES: CN(C)CCc1c[nH]c2cccc(OP(=O)(O)O)c12 [psilocybin, 4-phosphoryloxy-N,N-dimethyltryptamine]
- Body Weight, Day 1 vs. Day 12, Average ([1]; Psilocybin 4 mg/mL minipump): 20.6
- Body Weight, Day 1 vs. Day 12, Average ([1]; Psilocybin 6 mg/mL minipump): 19.3
- Body Weight, Day 1 vs. Day 12, Average ([1]; Psilocybin 8 mg/mL minipump): 24.4
- body weight over the study course ([1]; psilocybin minipump, 12 day study course): gaining body weight
- weight gain compared with placebo treated animals ([1]; psilocybin minipump, 12 days): gained weight to a lesser amount
- session duration (Long Evans rats; 0.1 mg/kg, low responder cohort): 18.7+2.5 min
- break point (Long Evans rats; [4]): no treatment group was significantly different to vehicle
- number of lever presses, session duration (Long Evans rats; [4]): no main effect of treatment
- lever press and break point (Long Evans rats; 0.05-0.1 mg/kg pretreatment, low responder cohort N=24, relative to vehicle): increases in both measures
- psilocybin blood levels [2]: 2 to 5 ng/mL
- Plasma concentration of psilocybin, Mean ([3]; psilocybin 0.05 mg/kg s.c., 0.25 h): 6.20 ng/mL
- Plasma concentration of psilocybin, Mean ([3]; psilocybin 0.05 mg/kg s.c., 0.5 h): 12.5 ng/mL
- Plasma concentration of psilocybin, Mean ([3]; psilocybin 0.05 mg/kg s.c., 0.75 h): 1.07 ng/mL
- Plasma concentration of psilocybin, Mean ([3]; psilocybin 0.05 mg/kg s.c., 1 h): 19.2 ng/mL
- Plasma concentration of psilocybin, Mean ([3]; psilocybin 0.05 mg/kg s.c., 2 h): 0.594 ng/mL
- Plasma concentration of psilocybin, Mean ([3]; psilocybin 0.05 mg/kg s.c., 4 h): 1.95 ng/mL
- Plasma concentration of psilocybin, Mean ([3]; psilocybin 0.05 mg/kg s.c., 6 h): 2.12 ng/mL
- Plasma concentration of psilocybin, Mean ([3]; psilocybin 0.1 mg/kg s.c., 0.25 h): 21.7 ng/mL
- Plasma concentration of psilocybin, Mean ([3]; psilocybin 0.1 mg/kg s.c., 0.5 h): 28.9 ng/mL
- Plasma concentration of psilocybin, Mean ([3]; psilocybin 0.1 mg/kg s.c., 0.75 h): 2.96 ng/mL
- Plasma concentration of psilocybin, Mean ([3]; psilocybin 0.1 mg/kg s.c., 1 h): 2.19 ng/mL
- Plasma concentration of psilocybin, Mean ([3]; psilocybin 0.1 mg/kg s.c., 2 h): 1.76 ng/mL
- Plasma concentration of psilocybin, Mean ([3]; psilocybin 0.1 mg/kg s.c., 4 h): 2.55 ng/mL
- Plasma concentration of psilocybin, Mean ([3]; psilocybin 0.1 mg/kg s.c., 6 h): 0.921 ng/mL
- Plasma concentration of psilocybin, Mean ([3]; psilocybin 1.0 mg/kg s.c., 0.25 h): 75.2 ng/mL
- Plasma concentration of psilocybin, Mean ([3]; psilocybin 1.0 mg/kg s.c., 0.5 h): 47.3 ng/mL
- Plasma concentration of psilocybin, Mean ([3]; psilocybin 1.0 mg/kg s.c., 0.75 h): 35.8 ng/mL
- Plasma concentration of psilocybin, Mean ([3]; psilocybin 1.0 mg/kg s.c., 1 h): 35.1 ng/mL
- Plasma concentration of psilocybin, Mean ([3]; psilocybin 1.0 mg/kg s.c., 2 h): 2.19 ng/mL
- Plasma concentration of psilocybin, Mean ([3]; psilocybin 1.0 mg/kg s.c., 4 h): 1.12 ng/mL
- Plasma concentration of psilocybin, Mean ([3]; psilocybin 1.0 mg/kg s.c., 6 h): 0.929 ng/mL
- Plasma concentration of psilocybin, Mean ([3]; psilocybin 10 mg/kg s.c., 0.25 h): 1030 ng/mL
- Plasma concentration of psilocybin, Mean ([3]; psilocybin 10 mg/kg s.c., 0.5 h): 1544 ng/mL
- Plasma concentration of psilocybin, Mean ([3]; psilocybin 10 mg/kg s.c., 0.75 h): 344 ng/mL
- Plasma concentration of psilocybin, Mean ([3]; psilocybin 10 mg/kg s.c., 1 h): 269 ng/mL
- Plasma concentration of psilocybin, Mean ([3]; psilocybin 10 mg/kg s.c., 2 h): 101 ng/mL
- Plasma concentration of psilocybin, Mean ([3]; psilocybin 10 mg/kg s.c., 4 h): 1.80 ng/mL
- Plasma concentration of psilocybin, Mean ([3]; psilocybin 10 mg/kg s.c., 6 h): 1.32 ng/mL
- AUC0-tlast, Mean ([3]; psilocybin 0.05 mg/kg s.c.): 10.7 ng·h/mL
- Cmax, Mean ([3]; psilocybin 0.05 mg/kg s.c.): 18.9 ng/mL
- Cmax/Dose, Mean ([3]; psilocybin 0.05 mg/kg s.c.): 377 kg·ng/mL/mg
- tmax, Mean ([3]; psilocybin 0.05 mg/kg s.c.): 36 min
- AUC0-tlast, Mean ([3]; psilocybin 0.1 mg/kg s.c.): 11.4 ng·h/mL
- Cmax, Mean ([3]; psilocybin 0.1 mg/kg s.c.): 31.4 ng/mL
- Cmax/Dose, Mean ([3]; psilocybin 0.1 mg/kg s.c.): 314 kg·ng/mL/mg
- tmax, Mean ([3]; psilocybin 0.1 mg/kg s.c.): 19.3 min
- AUC0-inf, Mean ([3]; psilocybin 1.0 mg/kg s.c.): 47.9 ng·h/mL
- AUC0-inf/Dose, Mean ([3]; psilocybin 1.0 mg/kg s.c.): 47.9 kg·ng·h/mL/mg
- AUC0-tlast, Mean ([3]; psilocybin 1.0 mg/kg s.c.): 53.1 ng·h/mL
- Apparent t1/2, Mean ([3]; psilocybin 1.0 mg/kg s.c.): 26.7 min
- Cmax, Mean ([3]; psilocybin 1.0 mg/kg s.c.): 78.3 ng/mL
- Cmax/Dose, Mean ([3]; psilocybin 1.0 mg/kg s.c.): 78.3 kg·ng/mL/mg
- MRT0-inf, Mean ([3]; psilocybin 1.0 mg/kg s.c.): 44.8 min
- tmax, Mean ([3]; psilocybin 1.0 mg/kg s.c.): 21.4 min
- AUC0-inf, Mean ([3]; psilocybin 10 mg/kg s.c.): 2156 ng·h/mL
- AUC0-inf/Dose, Mean ([3]; psilocybin 10 mg/kg s.c.): 216 kg·ng·h/mL/mg
- AUC0-tlast, Mean ([3]; psilocybin 10 mg/kg s.c.): 1707 ng·h/mL
- Apparent t1/2, Mean ([3]; psilocybin 10 mg/kg s.c.): 34 min
- Cmax, Mean ([3]; psilocybin 10 mg/kg s.c.): 3595 ng/mL
- Cmax/Dose, Mean ([3]; psilocybin 10 mg/kg s.c.): 359 kg·ng/mL/mg
- MRT0-inf, Mean ([3]; psilocybin 10 mg/kg s.c.): 43 min
- tmax, Mean ([3]; psilocybin 10 mg/kg s.c.): 30 min
- motor activity distance travelled (rats; high doses): slightly decreased distanced travelled
- motor activity distance travelled (rats; low doses): increase in motor activity distance travelled
